Assay results reported in US20110172297A1, “Oxopiperdinyl And Pyranyl Sulfonamides and Pharmaceutical Compositions Thereof” (Pfizer Inc, priority 2008, published 2011).
pEC50: −log10 of the molar value.

System: AMPA receptors
Assay: AMPA ES cell FLIPR screen (AMPA Potentiator Assay)
Assay type: cell-based
Conditions: murine ES cell-derived neurons, FLIPR Fluo-4 calcium signal, 32 uM AMPA challenge; values marked * are the geometric mean of 2-9 EC50 determinations
Description: The murine ES cell line used was E14-Sx1-16C, which has a targeted mutation in the Sox1 gene, a neuroectodermal marker, that offers G418 resistance when the Sox1 gene is expressed (Stem Cell Sciences). ES cells were maintained undifferentiated as previously described (Roach). […] ES cells were plated on gelatin-coated dishes (BD Biosciences), the media was changed daily and the cells were dissociated with 0.05% Trypsin EDTA (Invitrogen) every other day.
Embryoid Body Formation: Prior to embryoid body (EB) formation the ES cells were weaned from FBS onto Knockout Serum Replacement (KSR) (Invitrogen). To form EBs, ES cells were dissociated into a single cell suspension, then 3×10^6 cells were plated in bacteriology dishes (Nunc 4014) and grown as a suspension culture in NeuroEB-I medium that consisted of Knockout™ D-MEM (Invitrogen), supplemented with 10% KSR (Invitrogen), 0.2 mM L-Glutamine (Invitrogen), 0.1 mM MEM non-essential amino acids (Invitrogen), 30 μg/ml Gentamicin (Invitrogen), 1000 u/ml ESGRO (Chemicon), 0.1 mM 2-Mercaptoethanl (Sigma) and 150 ng/ml Transferrin (Invitrogen). The plates were put on a Stovall Belly Button shaker in an atmospheric oxygen incubator. The media was changed on day 2 of EB formation with NeuroEB-I and on day 4 with NeuroEB-II (NeuroEB-I plus 1 μg/ml mNoggin [R&D Systems]).
Neuronal Precursor Selection and Expansion: On day 5 of EB formation, EBs were dissociated with 0.05% Trypsin EDTA, and 4×10^6cells/100 mm dish were plated on Laminin coated tissue culture dishes in Neuroll-G418 medium that consisted of a base medium of a 1:1 mixture of D-MEM/F12 supplemented with N2 supplements and NeuroBasal Medium supplemented with B27 supplement and 0.1 mM L-Glutamine (all from Invitrogen). The base medium was then supplemented with 10 ng/ml bFGF (Invitrogen), 1 μg/ml mNoggin, 500 ng/ml SHH—N, 100 ng/ml FGF-8b (R&D Systems), 1 μg/ml Laminin and 200 μg/ml G418 (Invitrogen) for selection of neuronal precursors expressing Sox-1. The plates were put in an incubator that contained 2% Oxygen and were maintained in these conditions. During the 6-day selection period, the Neuroll media was changed daily. On day 6, the surviving neuronal precursor foci were dissociated with 0.05% Trypsin EDTA and the cells were plated at a density of 1.5×10^6 cells/100 mm Laminin coated dish in Neuroll-G418 medium. The cells were dissociated every other day for expansion, and prepared for Cryopreservation at passage 3 or 4. The crypreservation medium contained 50% KSR, 10% Dimethyl Sulfoxide (DMSO) (Sigma) and 40% Neurol-G418I medium. Neuronal precursors were crypreserved at a concentration of 4×10^6 cells/ml and 1 ml/cryovial in a controlled rate freezer overnight then transferred to an ultra-low freezer or liquid nitrogen for long-term storage.
Neuronal Differentiation: Cryopreserved ES cell-derived neuronal precursors were thawed by the rapid thaw method in a 37-degree water-bath. The cells were transferred from the cryovial to a 100 mm Laminin coated tissue culture dish that already contained Neuroll-G418 that had been equilibrated in a 2% Oxygen incubator. The media was changed with fresh Neuroll-G418 the next day. The cells were dissociated every other day as described above for expansion to generate enough cells to plate for the screen. For the screen, the cells were plated into 384-well poly-d-lysine coated tissue culture dishes (BD Biosciences) by the automated SelecT at a cell density of 6K cells/well in differentiation medium Neurolll that contained a 4:1 ratio of the NeuroBasalMedium/B27:D-MEM/F12/N2 supplemented with 1 μM cAMP (Sigma), 200 μM Ascorbic Acid (Sigma), 1 μg/ml Laminin (Invitrogen) and 10 ng/ml BDNF (R&D Systems). The plates were put in an incubator with 2% Oxygen and allowed to complete the differentiation process for 7 days. The cells could then be used over a 5-day period for the high throughput screen.
On the day of the assay, the FLIPR assay may be performed using the following methods: […]

Structure (SMILES) | pEC50
CC(C)S(=O)(=O)N[C@H]1CCOC[C@H]1c1ccc(-c2ccc(C#N)s2)cc1 [Example 1, N-{(3S,4S)-3-[4-(5-cyano-2-thienyl)phenyl]tetrahydro-2H-pyran-4-yl}propane-2-sulfonamide] | 4.96
CC(C)S(=O)(=O)N[C@H]1CCOC[C@@H]1c1ccc(-c2ccccc2)cc1 [Example 2, N-[(3R,4S)-3-biphenyl-4-yltetrahydro-2H-pyran-4-yl]propane-2-sulfonamide] | 6.44
CC(C)S(=O)(=O)N[C@H]1COCC[C@@]1(O)c1ccc(-c2ccccc2)cc1 [Example 3, N-[(3S,4R)-4-biphenyl-4-yl-4-hydroxytetrahydro-2H-pyran-3-yl]propane-2-sulfonamide] | 5.37
CC(C)S(=O)(=O)N[C@@H]1COCC[C@]1(O)c1ccc(-c2ccccc2)cc1 [Example 4, N-[(3R,4S)-4-biphenyl-4-yl-4-hydroxytetrahydro-2H-pyran-3-yl]propane-2-sulfonamide] | < 4.50
CC(C)S(=O)(=O)N[C@H]1COCC[C@]1(O)c1ccc(-c2ccccc2)cc1 [Example 5, N-[(3S,4S)-4-biphenyl-4-yl-4-hydroxytetrahydro-2H-pyran-3-yl]propane-2-sulfonamide] | 5.12
CC(C)S(=O)(=O)N[C@@H]1COCC[C@@]1(O)c1ccc(-c2ccccc2)cc1 [Example 6, N-[(3R,4R)-4-biphenyl-4-yl-4-hydroxytetrahydro-2H-pyran-3-yl]propane-2-sulfonamide] | < 4.50
CCOc1ccccc1-c1ccc([C@@H]2CCOC[C@H]2NS(=O)(=O)C(C)C)cc1 [Example 7, N-[(3S,4S)-4-(2′-ethoxybiphenyl-4-yl)tetrahydro-2H-pyran-3-yl]propane-2-sulfonamide] | < 4.50
CCOc1ccccc1-c1ccc([C@H]2CCOC[C@@H]2NS(=O)(=O)C(C)C)cc1 [Example 8, N-[(3R,4R)-4-(2′-ethoxybiphenyl-4-yl)tetrahydro-2H-pyran-3-yl]propane-2-sulfonamide] | 6.39
CC(C)S(=O)(=O)N[C@H]1CCCO[C@@H]1c1ccc(-c2ccccc2)cc1 [Example 9, N-[(2R,3S)-2-biphenyl-4-yltetrahydro-2H-pyran-3-yl]propane-2-sulfonamide] | 5.35
CCOc1ccccc1-c1ccc([C@@H]2NC(=O)CC[C@H]2NS(=O)(=O)C(C)C)cc1 [Example 10, N-[(2S,3R)-2-(2′-ethoxybiphenyl-4-yl)-6-oxopiperidin-3-yl]propane-2-sulfonamide] | < 5.12
CC(C)S(=O)(=O)N[C@H]1CCC(=O)N[C@@H]1c1ccc(-c2ccccc2)cc1 [Example 11, N-[(2R,3S)-2-biphenyl-4-yl-6-oxopiperidin-3-yl]propane-2-sulfonamide] | < 4.50

Second part, the compound after the results:

pEC50 | Structure (SMILES)
4.91 | CC(C)S(=O)(=O)N[C@@H]1CCC(=O)N[C@H]1c1ccc(-c2ccccc2)cc1 [Example 12, N-[(2S,3R)-2-biphenyl-4-yl-6-oxopiperidin-3-yl]propane-2-sulfonamide]
< 4.50 | CC(C)S(=O)(=O)N[C@@H]1COCC[C@@H]1c1ccc(-c2ccccc2)cc1 [Example 13, N-[(3S,4R)-4-biphenyl-4-yltetrahydro-2H-pyran-3-yl]propane-2-sulfonamide]
< 4.50 | CC(C)S(=O)(=O)N[C@@H]1COCC[C@H]1c1ccc(-c2ccccc2)cc1 [Example 15, N-[(3S,4S)-4-biphenyl-4-yltetrahydro-2H-pyran-3-yl]propane-2-sulfonamide]
5.74 | CC(C)S(=O)(=O)N[C@H]1COCC[C@@H]1c1ccc(-c2ccccc2)cc1 [Example 16, N-[(3R,4R)-4-biphenyl-4-yltetrahydro-2H-pyran-3-yl]propane-2-sulfonamide]
< 4.50 | CC(C)S(=O)(=O)N[C@@H]1COCC[C@H]1c1ccc(-c2ccccc2C#N)cc1 [Example 17, N-[(3S,4S)-4-(2′-cyanobiphenyl-4-yl)tetrahydro-2H-pyran-3-yl]propane-2-sulfonamide]
